Measured values reported in US20150315211A1, “SMALL MOLECULES FOR THE MODULATION OF MCL-1 AND METHODS OF MODULATING CELL DEATH, CELL DIVISION, CELL DIFFERENTIATION AND METHODS OF TREATING DISORDERS” (priority 2010, published 2015).

Columns and labels:
[1] = tested on: MCL-1ΔNΔC; test: High-throughput competitive FP binding screen, FITC-MCL-1 SAHB/MCL-1ΔNΔC interaction; settings: selectivity for MCL-1ΔNΔC over BCL-XLΔC targeting (BCL-XL % Bound minus MCL-1 % Bound)
[2] = target: BCL-XLΔC (Homo sapiens, UniProt Q07817); test: High-throughput competitive FP binding screen, FITC-BAD BH3/BCL-XLΔC interaction; settings: FITC-BAD BH3/BCL-XLΔC interaction pair, competitive FP screen
[3] = target: MCL-1ΔNΔC (Homo sapiens, UniProt Q07820); test: High-throughput competitive FP binding screen, FITC-MCL-1 SAHB/MCL-1ΔNΔC interaction; set-up: the C-terminal alpha-helix was deleted from each of these constructs; GST (N, cleaved yes); made in house; settings: FITC-MCL-1 SAHB/MCL-1ΔNΔC interaction pair, competitive FP screen
Sequence of MCL-1ΔNΔC (Homo sapiens, UniProt Q07820) (Q07820 172-320 limits assumed, stated change not applied): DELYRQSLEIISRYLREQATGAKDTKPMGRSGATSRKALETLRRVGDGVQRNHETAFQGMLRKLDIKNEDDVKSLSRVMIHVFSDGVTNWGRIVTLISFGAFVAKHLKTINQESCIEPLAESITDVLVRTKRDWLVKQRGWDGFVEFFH

Sequence of BCL-XLΔC (Q07817 1-212 limits assumed, stated change not applied): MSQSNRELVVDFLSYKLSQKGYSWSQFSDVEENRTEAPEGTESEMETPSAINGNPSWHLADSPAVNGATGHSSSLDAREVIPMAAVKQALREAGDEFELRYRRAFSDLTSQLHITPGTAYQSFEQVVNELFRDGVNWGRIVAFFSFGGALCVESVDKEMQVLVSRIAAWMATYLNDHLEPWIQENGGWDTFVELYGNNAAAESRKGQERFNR

| Compound | Spec Values [1] | BCL-XL % Bound [2] [%] | MCL-1% Bound [3] [%] |
| --- | --- | --- | --- |
| COC(=O)c1cc(OC(=O)c2ccccc2Br)n(C)n1 | 72.92 | 103.1 | 30.23 |
| COc1ccc(C(=O)c2sc3cc(-c4ccco4)cc(C(F)(F)F)c3c2N)cc1OC | 70.97 | 85.27 | 14.29 |
| O=C(Nc1ccccc1)C(C(F)(F)F)C(F)(F)F | 70.63 | 82.61 | 11.98 |
| CCCCn1nnnc1COC(=O)/C(C#N)=C/c1ccc(N(C)C)cc1 | 70.27 | 62.97 | −7.306 |
| Cc1ccc2[nH]c3nc(=S)[nH]nc3c2c1 | 69.2 | 107.9 | 38.65 |
| Cc1ccc2c(c1C)NC(C(=O)O)C1CC=CC21 (stereo not drawn) | 68.3 | 82.8 | 14.6 |
| CCN(CC)c1cc(C)c2cc(NC(=O)/C=C/c3ccco3)ccc2n1 | 68.15 | 79.88 | 11.73 |
| N#CC1=C(S)NC(=O)C(C#N)C12CCCCC2 (stereo not drawn) | 67.9 | 107.0 | 39.1 |
| COc1cc2c(O)c3c(c(-c4ccc5c(c4)OCO5)c2cc1OC)C(=O)OC3 | 66.63 | 104.6 | 37.92 |
| O=C(ON1C(=O)CCC1=O)c1ccc(Cl)cc1Cl | 66.25 | 96.73 | 30.48 |
| Cn1cc2c(n1)-c1cc(Cl)ccc1SC2 | 66.16 | 89.61 | 23.45 |
| CCOC(=O)c1cc(CC)sc1NC(=O)C=C(C)C | 66 | 90.12 | 24.13 |
| c1cc2nsnc2c2c1Nc1nc3nonc3nc1N2 | 65.78 | 57.68 | −8.097 |
| CCCCc1c(C)sc(NC(=S)Nn2cnnc2)c1C(=O)OCC | 64.95 | 69.53 | 4.578 |
| CC1CCc2c(sc3[nH]c(=S)sc(=N)c23)C1 (stereo not drawn) | 64.71 | 83.66 | 18.95 |
| O=C1C=Cc2ccc3c4c(ccc1c24)C=CC3=O | 64.7 | 91.4 | 26.7 |

| Compound | Spec Values [1] | BCL-XL % Bound [2] [%] | MCL-1% Bound [3] [%] |
| --- | --- | --- | --- |
| CC1=C/C(=N\Nc2ccccc2Cl)CC1 | 64.61 | 99.01 | 34.4 |
| O=C(O)C1Nc2c(I)cccc2C2C=CCC12 (stereo not drawn) | 64.16 | 100.3 | 36.12 |
| Clc1cccc2c(N3CCCCCC3)cnnc12 | 63.59 | 85.37 | 21.78 |
| Cc1ccc(C)c2[nH]c(=O)c(C(c3nnnn3C3CCCC3)N3CCCC3)cc12 (stereo not drawn) | 63.57 | 103.3 | 39.75 |
| CS(=O)(=O)CS(=O)(=O)NNc1ncc(C(F)(F)F)cc1Cl | 63.45 | 104.7 | 41.29 |
| O=C(NN=C1CCCC1)c1ccccc1NS(=O)(=O)c1cccs1 | 63.07 | 92.34 | 29.27 |
| CCCCn1c(=O)[nH]c(=O)c2c1nc(-c1cccs1)c(=O)n2C | 62.84 | 68.85 | 6.013 |
| CCCCC(=O)Cc1ccco1 | 62.08 | 103 | 40.94 |
| O=C1C=CC(=O)C(CCC2=CC(=O)C=CC2=O)=C1 | 61.8 | 93.01 | 31.21 |
| N#C/C(=C/C=C/c1ccc(-c2cc(Cl)ccc2Cl)o1)C(N)=S | 60.96 | 79.39 | 18.44 |
| N#CC1=C(c2ccc(Cl)cc2)COC1=O | 60.84 | 88.12 | 27.28 |
| CS/C(=N\S(=O)(=O)c1ccccc1)NNc1ccccc1 | 59.46 | 99.39 | 39.93 |
| O=C1C=CC(=O)C(CCCCCCC2=CC(=O)C=CC2=O)=C1 | 59.34 | 106.5 | 47.19 |
| O=c1[nH]cnc2ccc(Br)cc12 | 59.02 | 93.69 | 34.67 |
| CN1CCCN(Cc2cc(C(C)(C)C)c(O)c(C(C)(C)C)c2)CC1 | 58.29 | 83.5 | 25.21 |
| O=C(CC1C(=O)c2ccccc2S1(=O)=O)NC1=NN(c2ccccc2)C(=O)C1 (stereo not drawn) | 57.74 | 65.35 | 7.61 |

The remaining lines, values ahead:

| Spec Values [1] | BCL-XL % Bound [2] [%] | MCL-1% Bound [3] [%] | Compound |
| --- | --- | --- | --- |
| 72.31 | 84.9 | 12.59 | O=c1oc2ccccc2c2oc3cc(O)c(O)cc3c12 |
| 71.24 | 113.7 | 42.49 | Oc1cccnc1NC(c1ccc(F)cc1)c1ccc2cccnc2c1O (stereo not drawn) |
| 71.18 | 65.33 | −5.85 | Cc1cc2c(n1-c1ccc(C(=O)O)cc1)CCCC2 |
| 70.8 | 129.5 | 58.7 | Cc1occc1-c1nnc2sc(Cc3cccc4ccccc34)nn12 |
| 70.38 | 84.68 | 14.3 | CC1CCN(C2=NN3C(=N)/C(=C\c4ccc(SCc5ccco5)o4)C(=O)N=C3S2)CC1 |
| 69.33 | 107.9 | 38.57 | O=C1NC(=O)/C(=C/c2ccc(-c3ccc(S(=O)(=O)N4CCOCC4)cc3)o2)S1 |
| 68.9 | 100.2 | 31.28 | CCOC(=O)c1cc(C#N)c(SCC(=O)c2cc3ccccc3oc2=O)[nH]c1=O |
| 68.29 | 87.67 | 19.37 | N#CC1=C(c2ccc(Cl)cc2)C2CSc3ccccc3C2NC1=O (stereo not drawn) |
| 67.48 | 102 | 34.53 | CCOC(=O)C(C)Oc1cccc2c(=O)n(CC(=O)Nc3ccc4c(c3)CCCO4)ccc12 (stereo not drawn) |
| 65.85 | 93.02 | 27.17 | COc1ccc(C(Nc2cc(C)ccn2)c2ccc3cccnc3c2O)cc1O (stereo not drawn) |
| 65.07 | 131.2 | 66.14 | Cc1ncc(CO)c2c1Oc1nc(-c3ccccc3)[nH]c(=S)c1C2 |
| 64.25 | 95.42 | 31.17 | O=C(O)c1cccc(-c2ccc(CC3Sc4ccccc4C3=O)o2)c1 (stereo not drawn) |
| 64.01 | 99.74 | 35.73 | Cc1ccc(CCNC(=O)c2ccc3nc(-c4ccco4)c(-c4ccco4)nc3c2)cc1 |
| 63.14 | 81.72 | 18.57 | CN1C(=O)C2(NN=C(c3ccccc3)S2)c2cc(Br)ccc21 (stereo not drawn) |
| 63.02 | 94.42 | 31.4 | Cc1nc2c(C(=O)NCc3ccccc3Cl)cnn2c(O)c1Cl |
| 62.99 | 90.71 | 27.72 | O=C(c1ccc(O)cc1)N1CCN(c2cccc(Cl)c2)CC1 |
| 62.88 | 43.27 | −19.61 | O=C(c1ccccc1)c1nc2ccccc2oc1=O |
| 62.71 | 106.4 | 43.7 | Oc1cccc(C(c2ccc3cccnc3c2O)N2CCCC2)c1 (stereo not drawn) |
| 61.73 | 101.3 | 39.52 | Cc1nc(COC(=O)c2cc(O)c3ccccc3c2O)cs1 |
| 61.48 | 120.9 | 59.44 | O=C(CSc1nc2c(sc(=S)n2Cc2ccco2)c(=O)n1-c1ccccc1)c1ccc(O)c(O)c1 |
| 60.88 | 31.24 | −29.64 | Cn1c(/N=C/c2c(O)ccc3ccccc23)nc2ccc(Br)cc21 |
| 60.7 | 98.3 | 37.6 | O=C(CSc1nnc(-c2ccco2)c(-c2ccco2)n1)N1c2ccccc2Sc2ccc(Cl)cc21 |
| 60.36 | 65.03 | 4.673 | N#C/C(=C/c1cn(Cc2ccc(C(=O)O)o2)c2ccccc12)c1ccc(F)cc1 |
| 59.09 | 95.64 | 36.55 | Cc1ccc2c(CC(=O)NCC(=O)OCc3ccccc3)coc2c1 |
| 59.04 | 100.8 | 41.79 | Cc1ccc(C(c2c(O)ccc3ccccc23)N2CCOCC2)o1 (stereo not drawn) |
| 58.85 | 77.59 | 18.74 | Cc1ccc(/C=C2\C(=O)Nc3ccc(Br)cc32)o1 |
| 58.66 | 81.48 | 22.81 | COc1cc(C2Nc3cccc4cccc(c34)N2)cc(I)c1O |
| 58.58 | 98.1 | 39.52 | Cc1ccccc1-c1nnc(SCC(=O)NC(=O)Nc2ccccc2F)n1C |
| 58.52 | 97.64 | 39.12 | O=C1COc2ccc(-c3cs/c(=N\c4ccc(F)cc4)n3/N=C/c3ccc(O)c(O)c3)cc2N1 |
| 58.45 | 88.86 | 30.41 | O=C1C2=C(C(=O)c3ccccc31)C(c1ccccc1O)c1sc(=O)[nH]c1S2 (stereo not drawn) |
